In patent US11377442B2, “Small molecule agonists and antagonists of NR2F6 activity” (ZANDER THERAPEUTICS, INC., priority 2016, dated 2022):
Like-named read-outs stand apart in the source and are kept apart here. One block for each compound: values may come before it.

Key:
Format in all cases: cell-based
[1] = target: T1, NR2F6 (Homo sapiens, UniProt P10588); test: NR2F6 agonist screening, Firefly signal cmpd/DMSO; settings: for Activity, cmpd/DMSO: Table 31
T1 construct: expressed in transfected cells; also transient transfection
T1 sequence (P10588 1-404): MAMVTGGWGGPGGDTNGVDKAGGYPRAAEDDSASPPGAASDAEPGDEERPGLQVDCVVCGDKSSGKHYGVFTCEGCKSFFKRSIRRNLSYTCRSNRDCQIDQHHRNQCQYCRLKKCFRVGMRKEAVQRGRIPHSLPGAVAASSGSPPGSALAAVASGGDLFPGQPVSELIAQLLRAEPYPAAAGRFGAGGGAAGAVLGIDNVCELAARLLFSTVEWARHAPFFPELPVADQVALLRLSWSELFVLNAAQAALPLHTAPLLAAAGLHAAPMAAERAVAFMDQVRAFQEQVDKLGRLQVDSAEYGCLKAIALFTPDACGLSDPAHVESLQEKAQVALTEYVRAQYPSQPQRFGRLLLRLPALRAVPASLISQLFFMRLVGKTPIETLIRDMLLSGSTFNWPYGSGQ

[2] = tested on: Renilla; test: Renilla signal in NR2F6 agonist screening, cmpd/DMSO; settings: Renilla, F4
[3] = tested on: HEK293 pGL4; test: Firefly_pGL signal, cmpd/DMSO (pGL4 control cells); settings: Homo sapiens
[4] = target: T2, NR2F6 LBD (Homo sapiens, UniProt P10588); test: NR2F6 LBD transient transfection; settings: LBD
T2 construct: expressed in transfected cells
T2 sequence (P10588 165-393 limits assumed): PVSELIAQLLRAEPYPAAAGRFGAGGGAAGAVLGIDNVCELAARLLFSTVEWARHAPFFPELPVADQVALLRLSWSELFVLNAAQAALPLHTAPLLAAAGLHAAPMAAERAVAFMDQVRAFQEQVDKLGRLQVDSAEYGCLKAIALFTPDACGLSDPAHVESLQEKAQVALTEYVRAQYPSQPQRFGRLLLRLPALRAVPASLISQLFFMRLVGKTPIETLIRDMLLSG
Outline: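 LBD-transfected cells treated at 40, 10, 2 and 0.5 μM (4 replicates); cytotoxicity measured in parallel, normalized to DMSO (0%) and zero signal (100%). Higher concentrations excluded where signal loss reflected toxicity.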

[5] = read-out: Renilla, F4, cmpd/DMSO (mean)
[6] = 1% FBS, read-out: Renilla, F4, 1% FBS, cmpd/DMSO (mean)
[7] = 10% FBS, read-out: Renilla, F4, 10% FBS, cmpd/DMSO (mean)
[8] = HEK293, 0.5 uM, pGL4, read-out: Firefly pGL4, cmpd/DMSO (mean)
[9] = HEK293, 2 uM, pGL4, read-out: Firefly pGL4, cmpd/DMSO (mean)
[10] = HEK293, 10 uM, pGL4, read-out: Firefly pGL4, cmpd/DMSO (mean)
[11] = HEK293, 40 uM, pGL4, read-out: Firefly pGL4, cmpd/DMSO (mean)
[12] = HEK293, pGL4, 1% FBS, 0.5 uM, read-out: Firefly, pGL4, 1% FBS, cmpd/DMSO (mean)
[13] = HEK293, pGL4, 1% FBS, 2 uM, read-out: Firefly, pGL4, 1% FBS, cmpd/DMSO (mean)
[14] = HEK293, pGL4, 1% FBS, 10 uM, read-out: Firefly, pGL4, 1% FBS, cmpd/DMSO (mean)
[15] = HEK293, pGL4, 1% FBS, 40 uM, read-out: Firefly, pGL4, 1% FBS, cmpd/DMSO (mean)
[16] = HEK293, pGL4, 10% FBS, 0.5 uM, read-out: Firefly, pGL4, 10% FBS, cmpd/DMSO (mean)
[17] = HEK293, pGL4, 10% FBS, 2 uM, read-out: Firefly, pGL4, 10% FBS, cmpd/DMSO (mean)
[18] = HEK293, pGL4, 10% FBS, 10 uM, read-out: Firefly, pGL4, 10% FBS, cmpd/DMSO (mean)
[19] = HEK293, pGL4, 10% FBS, 40 uM, read-out: Firefly, pGL4, 10% FBS, cmpd/DMSO (mean)

Firefly F4, cmpd/DMSO (mean) ([1]; 0.5 uM): 1.5 | Firefly F4, cmpd/DMSO (mean) ([1]; 2 uM): 2.3 | Firefly F4, cmpd/DMSO (mean) ([1]; 10 uM): 5.4 | Firefly F4, cmpd/DMSO (mean) ([1]; 40 uM): 0.8 | F4, Firefly/Renilla for S/B(F4) > 3 ([1]; 1% FBS, 10 uM): 2.5 | Firefly, F4/pGL4 for S/B(F4) > 3 ([1]; 1% FBS, 10 uM): 1.7 | F4, Firefly/Renilla for S/B(F4) > 3 ([1]; 10% FBS, 10 uM): 3.6 | Firefly, F4/pGL4 for S/B(F4) > 3 ([1]; 10% FBS, 10 uM): 2.7 | Firefly, F4, 1% FBS, cmpd/DMSO (mean) ([1]; 1% FBS, 0.5 uM): 0.9 | Firefly, F4, 1% FBS, cmpd/DMSO (mean) ([1]; 1% FBS, 2 uM): 1.9 | Firefly, F4, 1% FBS, cmpd/DMSO (mean) ([1]; 1% FBS, 10 uM): 4.6 | Firefly, F4, 1% FBS, cmpd/DMSO (mean) ([1]; 1% FBS, 40 uM): 0.5 | Firefly, F4, 10% FBS, cmpd/DMSO (mean) ([1]; 10% FBS, 0.5 uM): 1.6 | Firefly, F4, 10% FBS, cmpd/DMSO (mean) ([1]; 10% FBS, 2 uM): 1.4 | Firefly, F4, 10% FBS, cmpd/DMSO (mean) ([1]; 10% FBS, 10 uM): 7.1 | Firefly, F4, 10% FBS, cmpd/DMSO (mean) ([1]; 10% FBS, 40 uM): 1.7 | Activity, cmpd/DMSO [1]: 5.2 | Firefly LBD, cmpd/DMSO (mean) ([4]; 0.5 uM): 1.2 | Firefly LBD, cmpd/DMSO (mean) ([4]; 2 uM): 1.7 | Firefly LBD, cmpd/DMSO (mean) ([4]; 10 uM): 4.0 | Firefly LBD, cmpd/DMSO (mean) ([4]; 40 uM): 0.7
SMILES: CC1CCN([C@H]2CS(=O)(=O)C[C@@H]2S(=O)(=O)c2cccs2)CC1 [Compound D106]
fold induction at 0.5 µM [2, 5]: 1 | fold induction at 2 µM [2, 5]: 1.2 | fold induction at 10 µM [2, 5]: 1.7 | fold induction at 40 µM [2, 5]: 0.5 | fold induction at 0.5 µM [2, 6]: 1.2 | fold induction at 2 µM [2, 6]: 1.4 | fold induction at 10 µM [2, 6]: 1.9 | fold induction at 40 µM [2, 6]: 1.1 | fold induction at 0.5 µM [2, 7]: 1.2 | fold induction at 2 µM [2, 7]: 1.1 | fold induction at 10 µM [2, 7]: 2 | fold induction at 40 µM [2, 7]: 2 | fold induction at 0.5 µM [3, 8]: 1.1 | fold induction at 2 µM [3, 9]: 1.6 | fold induction at 10 µM [3, 10]: 3.6 | fold induction at 40 µM [3, 11]: 0.7 | fold induction at 0.5 µM [3, 12]: 1.1 | fold induction at 2 µM [3, 13]: 1.8 | fold induction at 10 µM [3, 14]: 2.8 | fold induction at 40 µM [3, 15]: 0.8 | fold induction at 0.5 µM [3, 16]: 0.9 | fold induction at 2 µM [3, 17]: 1.2 | fold induction at 10 µM [3, 18]: 2.7 | fold induction at 40 µM [3, 19]: 1.2

Firefly F4, cmpd/DMSO (mean) ([1]; 0.5 uM): 1.3 | Firefly F4, cmpd/DMSO (mean) ([1]; 2 uM): 2.3 | Firefly F4, cmpd/DMSO (mean) ([1]; 10 uM): 4.2 | Firefly F4, cmpd/DMSO (mean) ([1]; 40 uM): 0.4 | F4, Firefly/Renilla for S/B(F4) > 3 ([1]; 1% FBS, 10 uM): 3.1 | Firefly, F4/pGL4 for S/B(F4) > 3 ([1]; 1% FBS, 10 uM): 2.6 | F4, Firefly/Renilla for S/B(F4) > 3 ([1]; 10% FBS, 10 uM): 3.3 | Firefly, F4/pGL4 for S/B(F4) > 3 ([1]; 10% FBS, 10 uM): 3.0 | F4, Firefly/Renilla for S/B(F4) > 3 ([1]; 10% FBS, 40 uM): 1.3 | Firefly, F4/pGL4 for S/B(F4) > 3 ([1]; 10% FBS, 40 uM): 2.8 | Firefly, F4, 1% FBS, cmpd/DMSO (mean) ([1]; 1% FBS, 0.5 uM): 1.5 | Firefly, F4, 1% FBS, cmpd/DMSO (mean) ([1]; 1% FBS, 2 uM): 1.6 | Firefly, F4, 1% FBS, cmpd/DMSO (mean) ([1]; 1% FBS, 10 uM): 5.5 | Firefly, F4, 1% FBS, cmpd/DMSO (mean) ([1]; 1% FBS, 40 uM): 0.2 | Firefly, F4, 10% FBS, cmpd/DMSO (mean) ([1]; 10% FBS, 0.5 uM): 1.3 | Firefly, F4, 10% FBS, cmpd/DMSO (mean) ([1]; 10% FBS, 2 uM): 1.4 | Firefly, F4, 10% FBS, cmpd/DMSO (mean) ([1]; 10% FBS, 10 uM): 6.5 | Firefly, F4, 10% FBS, cmpd/DMSO (mean) ([1]; 10% FBS, 40 uM): 3.1 | Activity, cmpd/DMSO [1]: 6.2 | Firefly LBD, cmpd/DMSO (mean) ([4]; 0.5 uM): 1.1 | Firefly LBD, cmpd/DMSO (mean) ([4]; 2 uM): 2.1 | Firefly LBD, cmpd/DMSO (mean) ([4]; 10 uM): 3.2 | Firefly LBD, cmpd/DMSO (mean) ([4]; 40 uM): 0.2
SMILES: C[C@@H]1C[C@H](C)CN([C@H]2CS(=O)(=O)C[C@@H]2S(=O)(=O)c2cccs2)C1 [Compound D109]
fold induction at 0.5 µM [2, 5]: 1.1 | fold induction at 2 µM [2, 5]: 1.2 | fold induction at 10 µM [2, 5]: 1.6 | fold induction at 40 µM [2, 5]: 0.5 | fold induction at 0.5 µM [2, 6]: 1 | fold induction at 2 µM [2, 6]: 1.3 | fold induction at 10 µM [2, 6]: 1.7 | fold induction at 40 µM [2, 6]: 1.1 | fold induction at 0.5 µM [2, 7]: 1 | fold induction at 2 µM [2, 7]: 1.2 | fold induction at 10 µM [2, 7]: 1.9 | fold induction at 40 µM [2, 7]: 2.4 | fold induction at 0.5 µM [3, 8]: 1 | fold induction at 2 µM [3, 9]: 1.6 | fold induction at 10 µM [3, 10]: 3.6 | fold induction at 40 µM [3, 11]: 0.5 | fold induction at 0.5 µM [3, 12]: 1.2 | fold induction at 2 µM [3, 13]: 1.3 | fold induction at 10 µM [3, 14]: 2.1 | fold induction at 40 µM [3, 15]: 1.1 | fold induction at 0.5 µM [3, 16]: 1.4 | fold induction at 2 µM [3, 17]: 1.2 | fold induction at 10 µM [3, 18]: 2.2 | fold induction at 40 µM [3, 19]: 1.1
